Test results taken from US20200277373A1, “ANTI-TREM2 ANTIBODIES AND METHODS OF USE THEREOF” (Denali Therapeutics Inc., priority 2017, published 2020).

How the values were obtained:
Format in all cases: cell-based
[1] = tested on: primary human macrophages; experiment: Liposome stimulation pSyk AlphaLISA, primary human macrophages; conditions: liposomes 30% lipid/70% PC (KLA 10%/90%)
Procedure: (§1) Lipids were purchased from Avanti Polar Lipids (Alabaster, Ala.) or Echelon Biosciences (Salt Lake City, Utah). Each screened lipid was resuspended in chloroform and added at 30 mole percent composition to 70 mole percent phosphatidylcholine (PC; 1,2-dioleoyl-sn-glycero-3-phosphocholine, Avanti Polar Lipids). Kdo2-Lipid A was added at a 10 mole percent composition with 90 mole percent PC. Lipid mixes were dried under nitrogen gas and resuspended in HBSS at a concentration of 4 mg/mL. Mixes were vortexed or briefly sonicated until resuspended, then bath sonicated for 1-5 minutes. Liposomes were used for 1-2 weeks. 3 independent batches of liposomes were used in experiments.
10 mL human blood was obtained from Blood Centers of the Pacific. Monocytes were extracted using RosetteSep Human Monocyte Enrichment Cocktail ([…] Technologies Inc.; Vancouver, BC; #15068) as per manufacturer protocols. Density gradient was performed with Ficoll-Paque Premium (GE Healthcare Life Sciences; Pittsburgh, Pa.; #17-5442-02). Isolated monocytes were resuspended at ˜1-1.3 million cells/mL and cultured for 5-6 days in RPMI, 10% Hyclone Fetal Bovine Serum, and penicillin/streptomycin supplemented with 50 ng/mL human M-CSF (Gibco, # PHC9501) in T175 tissue culture treated flasks. M-CSF was replenished every 2-3 days. Cells were washed once with PBS, 15 mL fresh medium was added, and cells were harvested by scraping. Cells were cultured overnight at a density of 100,000 cells per well on tissue culture treated 96-well plates supplemented with 10-25 ng/mL M-CSF.
(§2) Cell culture medium was removed and cells were washed once with 200ul HBSS. Liposomes were diluted in HBSS in concentrations ranging from 0.03125 mg/mL to 2 mg/mL, then 50 μl was added to wells in 2-3 technical replicates per plate. Each plate contained HBSS negative control wells, 100% PC liposome control, 5 μg/mL agonist anti-TREM2 positive control (Abnova; Taiwan; # MAB2056), and 5 μg/mL mouse IgG3 isotype control (R&D Systems; Minneapolis, Minn.; # MAB007). Stimuli were incubated with cells for 5 minutes at 37° C., 5% CO2, liposomes were removed, and plates were frozen at −80° C.
(§3) Cells were lysed for 30 minutes to 1 hour on ice in 50 ul/well Cell Lysis Buffer (Cell Signaling Technology; Danvers, Mass.; #9803) with 1 mM PMSF. AlphaLISA SureFire Ultra p-Syk Tyr525/526 assay kit (PerkinElmer, ALSU-PSYK-A10OK) was used to measure pSyk levels in lysate as per manufacturer protocol. 10 μl lysate was added to 384-well OptiPlates (PerkinElmer; #6007290) and an EnVision Multilabel Plate Reader (PerkinElmer) was used to measure AlphaLISA fluorescence.
(§4) PSyk AlphaLISA fluorescence was converted to a log 2 scale. Fluorescence values from liposomes and controls were each subtracted from average fluorescence values from HBSS stimulated wells on the same plate (log 2(liposome)−log 2(HBSSave)=log 2(signal)). The result was converted back to a standard scale to measure fold change (2^log 2(signal)=fold change). Technical replicate fold changes values were averaged to obtain the fold change over background listed (pSyk FOB). Graphs represent values from independent experiments or individual human donors. Results from the screen on the HEK293 overexpressing cell lines are shown in Table 9 below and in FIG. 8A-8B. HEK293 results showing specificity for TREM2 over DAP12 expressed alone can be used to extrapolate which lipid species are likely acting as TREM2 ligands on human macrophages.

R47H TREM2 mutant = target: T1, R47H TREM2 mutant (Homo sapiens, UniProt Q9NZC2, R47H); experiment: Liposome stimulation pSyk AlphaLISA, HEK293 overexpressing TREM2-R47H and DAP12; conditions: liposomes 30% lipid/70% PC (KLA 10%/90%), fold change over HBSS
T1 construct: expressed in transfected cells
T1 sequence (Q9NZC2 19-230 R47H): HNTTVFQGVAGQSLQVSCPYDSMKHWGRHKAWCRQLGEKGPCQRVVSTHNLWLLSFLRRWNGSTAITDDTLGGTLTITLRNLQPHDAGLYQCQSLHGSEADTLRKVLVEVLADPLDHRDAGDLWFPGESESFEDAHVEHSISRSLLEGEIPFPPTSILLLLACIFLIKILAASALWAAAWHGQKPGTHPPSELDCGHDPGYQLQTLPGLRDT
T1 sequence (O43914 22-113 partner): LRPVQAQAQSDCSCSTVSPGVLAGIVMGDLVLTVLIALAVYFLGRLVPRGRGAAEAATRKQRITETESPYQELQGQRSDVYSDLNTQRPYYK
Procedure: as §1
(§5) HEK293 cell lines overexpressing TREM2 and DAP12, mutant TREM2-R47H and DAP12, or DAP12 alone were plated in 96-well PDL-coated plates at a density of 40,000 cells per well and cultured for 36-48 hours until 90-100% confluent.
as §2, §3, §4

TREM2 = target: T2, TREM2 (Homo sapiens, UniProt Q9NZC2); experiment: Liposome stimulation pSyk AlphaLISA, HEK293 overexpressing TREM2 and DAP12; conditions: liposomes 30% lipid/70% PC (KLA 10%/90%), fold change over HBSS
T2 construct: expressed in transfected cells
T2 sequence (Q9NZC2 19-230): as the sequence (Q9NZC2 19-230 R47H) above, with H29R counted along it
T2 sequence (O43914 22-113 partner): as the sequence (O43914 22-113 partner) above
Procedure: as §1, §5, §2, §3, §4

DAP12 alone = target: T3, DAP12 alone (Homo sapiens, UniProt O43914); experiment: Liposome stimulation pSyk AlphaLISA, HEK293 expressing DAP12 alone; conditions: liposomes 30% lipid/70% PC (KLA 10%/90%), fold change over HBSS
T3 construct: expressed in transfected cells
T3 sequence (O43914 22-113): as the sequence (O43914 22-113 partner) above
Procedure: as §1, §5, §2, §3, §4

R47H TREM2 mutant (pSyk FOB) (R47H TREM2 mutant) [FOB] | Human TREM2 (pSyk FOB) (TREM2) [FOB] | DAP12 alone (pSyk FOB) (DAP12 alone) [FOB] | Compound | pSyk FOB [1] [FOB]
3.94 | 2.42 | 1.64 | CCCCCCCCCCCCC/C=C/[C@@H](O)[C@@H](N)COP(=O)(O)O [Sphingosine-1-phosphate (SolP), Sphingosine-1-phosphate] | 2.10
0.85 | 0.67 | 1.32 | CCCCCCCCCCCCC/C=C/[C@@H](O)[C@@H](N)CO [Sphingosine] | 0.96
3.04 | 4.85 | 1.42 | Bis(monoacylglycero)phosphate [Bis(monoacylglycero)phosphate (BMP)] | 2.19
3.31 | 3.79 | 1.26 | Cardiolipin [Cardiolipin (CL)] | 2.50
2.21 | 2.20 | 1.30 | Ceramide | 1.44
4.00 | 3.89 | 1.16 | Ceramide-1-phosphate [Ceramide-1-phosphate (C1P)] | 2.28
10.90 | 4.24 | 1.14 | Cholesteryl ester [Cholesteryl ester (CE)] | 1.62
1.93 | 1.59 | 1.40 | Dihydrosphingomyelin [Dihydrosphingomyelin (DhSM)] | 0.96
4.65 | 3.45 | 1.16 | Galactosylceramide [Galactosylceramide (GalCer)] | 1.98
4.93 | 4.94 | 0.92 | Ganglioside GM1 | 1.52
6.05 | 5.82 | 1.14 | Ganglioside GM3 | 1.17
2.06 | 1.89 | 1.27 | Lactosylceramide [Lactosylceramide (LacCer)] | 1.29
3.62 | 3.69 | 1.17 | Lysophosphatidic acid [Lysophosphatidic acid (LPA)] | 1.82
3.58 | 4.16 | 1.28 | Lysophosphatidylethanolamine [LysophosphatidyLethanolamine (LPE)] | 2.03
3.44 | 4.83 | 1.28 | Lysophosphatidylglycerol [Lysophosphatidylglycerol (LPG)] | 1.64
0.32 | 1.12 | 1.03 | Lysophosphatidylinositol [Lysophosphatidylinositol (LPI)] | 1.61
0.68 | 0.81 | 1.26 | Oxidized phosphatidylcholine [Oxidized phosphatidylcholine (oxPC)] | 1.25
2.72 | 2.17 | 1.48 | Phosphatidic acid [Phosphatidic acid (PA)] | 2.17
4.83 | 3.00 | 1.57 | Phosphatidylethanol [Phosphatidylethanol (PEtOH)] | 1.61
2.49 | 1.49 | 1.51 | Phosphatidylethanolamine [Phosphatidylethanolamine (PE) or DSPE] | 1.53
3.77 | 2.25 | 1.40 | Phosphatidylglycerol [Phosphatidylglycerol (PG) or DSPG] | 1.85
2.27 | 4.31 | 1.04 | Phosphatidylinositol [Phosphatidylinositol (PI)] | 2.09
2.65 | 2.42 | 1.27 | Phosphatidylserine [Phosphatidylserine (PS)] | 2.09
2.09 | 1.74 | 1.40 | Sphingomyelin [Sphingomyelin (SM)] | 1.02
6.34 | 5.02 | 1.21 | Sulfatide | 1.75

Compound | R47H TREM2 mutant (pSyk FOB) (R47H TREM2 mutant) [FOB] | Human TREM2 (pSyk FOB) (TREM2) [FOB] | DAP12 alone (pSyk FOB) (DAP12 alone) [FOB] | pSyk FOB [1] [FOB]
CCCCCCCCCCCCCCC[C@@H](O)[C@@H](N)COP(=O)(O)O [Sphinganine-1-phosphate (SalP), Sphinganine-1-phosphate] | 5.32 | 3.31 | 1.34 | 1.08
Ether phosphatidylcholine [Ether phosphatidylcholine (PCe)] | 3.97 | 2.94 | 1.33 | 1.29
Lysophosphatidylserine [Lysophosphatidylserine (LPS)] | 3.88 | 3.77 | 1.39 | 1.78
N-Acyl-Serine [N-Acyl-Serine (NSer)] | 3.76 | 2.59 | 1.39 | 1.66
Palmitic-acid-9-hydroxy-stearic-acid | 7.31 | 5.87 | 1.27 | 3.94
